Measurements: ChEMBL document CHEMBL4000193, “Discovery of a Chemical Probe Bisamide (CCT251236): An Orally Bioavailable Efficacious Pirin Ligand from a Heat Shock Transcription Factor 1 (HSF1) Phenotypic Screen” (J Med Chem, 2017)
Blank lines part the entries; values can stand above or below the compound they belong to. Calls of active or inactive are those of the source. No cut-off for these calls is given here.

Assays:
[1] = Drug uptake in NCr nude mouse tumor xenografted with human SKOV3 cells at 20 mg/kg, po qd measured after 33 days; format: ADME, organism-based, Neoplasm; details: read-out: Drug uptake
WM 266-4 = test: Anti-migratory activity against human WM266.4 cells at 1 to 1000 nM after 30 hrs by scratch-wound assay; format: functional, cell-based
SK-OV-3 = test: cells; details: Homo sapiens, SK-OV-3, 96 h, read-out: pGI50 (converted)
Description: Antiproliferative activity against human SKOV3 cells after 96 hrs by CellTiter Blue assay

concentration at […] [1]: 940 nM
SMILES: Cc1ccc(NC(=O)c2ccc3c(c2)OCCO3)cc1NC(=O)c1ccc2nc(OCCN3CCCC3)ccc2c1

SMILES: Cc1ccc(NC(=O)c2cccc3c2OCCO3)cc1NC(=O)c1ccc2nc(OCCN3CCCC3)ccc2c1
Activity (WM 266-4): inactive

SMILES: Cc1ccc(NC(=O)c2ccc3c(c2)OCCO3)cc1NC(=O)c1ccc2nc(OCCN3CCCCC3)ccc2c1
GI50 (SK-OV-3): 1.07 nM
